For data set [1], the system named is Human immunodeficiency virus 2. The experiment in a line: Antiviral activity against Human immunodeficiency virus 2 CDC 310319 infected in phytohemagglutininin and interleukin-2-stimulated PBMC assessed as inhibition of viral Reverse transcriptase by [3H]TTP incorporation assay. Type of data set: functional, organism-based.
Data set [2] can be described thus: Cytotoxicity against human AA5 cells by MTS assay. Type of data set: cell-based. (Tetrazolium assays rely on reduction of a dye to a coloured formazan, in cell work by metabolically active cells.)
For data set [3], the system named is Simian immunodeficiency virus. The experiment in a line: Antiviral activity against simian immunodeficiency virus 69R infected in phytohemagglutininin and interleukin-2-stimulated PBMC assessed as inhibition of viral Reverse transcriptase by [3H]TTP incorporation assay. Type of data set: functional, organism-based.
In data set [4] the test system is Human immunodeficiency virus 1. As to the kind of experiment: Antiviral activity against Human immunodeficiency virus 1 A12 harboring Tyr127His, Asp174Asn and Arg178Lys mutations in nef protein infecting in CEM-SS cells assessed as inhibition of viral Reverse transcriptase by [3H]TTP incorporation assay.
The subject of data set [5] is Human immunodeficiency virus 1. As to the kind of experiment: Antiviral activity against Human immunodeficiency virus 1 A7 harboring Tyr127His mutation in nef protein infecting in CEM-SS cells assessed as inhibition of viral Reverse transcriptase by [3H]TTP incorporation assay.
Data set [6] concerns PBMC. As to the kind of experiment: Cytotoxicity against human PBMC assessed as cell viability at 1 uM by MTS assay. Type of data set: cell-based.
For a further data set, the system named is H9. The experiment in a line: Cytotoxicity against human H9 cells by MTS assay. Type of data set: functional, cell-based.
For data set [7], the system named is Human immunodeficiency virus 1. As to the kind of experiment: Antiviral activity against Human immunodeficiency virus 1 D1 harboring Tyr127His mutation in nef protein infecting in CEM-SS cells assessed as inhibition of viral Reverse transcriptase by [3H]TTP incorporation assay.
Data set [8] deals with Human immunodeficiency virus 1. The experiment in a line: Antiviral activity against Human immunodeficiency virus 1 H10 harboring Tyr127His, Gly140Glu, Glu149Lys, Asp174Asn and Arg178Lys mutations in nef protein infecting in CEM-SS cells assessed as inhibition of viral Reverse transcriptase by [3H]TTP incorporation assay.
Data set [9] concerns PBMC. As to the kind of experiment: Cytotoxicity against human PBMC assessed as cell viability at 10 uM by MTS assay. Type of data set: cell-based.
For data set [10], the system named is Simian immunodeficiency virus. As to the kind of experiment: Antiviral activity against simian immunodeficiency virus Mac251 infected in phytohemagglutininin and interleukin-2-stimulated PBMC assessed as inhibition of viral Reverse transcriptase by [3H]TTP incorporation assay. Type of data set: functional, organism-based.
In the next data set the test system is CEM-SS. The experiment in a line: Cytotoxicity against human CEM-SS cells by MTS assay. Type of data set: functional, cell-based.
Data set [11] relates to Human immunodeficiency virus 2. As to the kind of experiment: Antiviral activity against Human immunodeficiency virus 2 CDC 310342 infected in phytohemagglutininin and interleukin-2-stimulated PBMC assessed as inhibition of viral Reverse transcriptase by [3H]TTP incorporation assay. Type of data set: functional, organism-based.

Some results are limits rather than exact numbers.

Regarding `Cc1cn([C@H]2C[C@H](N=[N+]=[N-])[C@@H](CO)O2)c(=O)[nH]c1=O` [ZIDOVUDINE], the IC50 – broadly, the midpoint of a concentration-inhibition curve – in data set [1] is 0.2 nM; in data set [2], greater than 100 nM; in data set [3], 0.5 nM; in data set [4] it was 80 nM; in data set [5], 28 nM; with H9, greater than 100 nM. For the same compound, the IC50 in [7] is 15 nM; in data set [8], 40 nM; in [10], 10 nM; in the data set with CEM-SS, greater than 100 nM; in data set [11] it was 1 nM. Further, the Activity result in the data set on PBMC [6] and with PBMC [9] was “Non-toxic” each time.

For the origin of these results see ChEMBL document CHEMBL1671682, “Inhibition of human immunodeficiency virus type 1 by triciribine involves the accessory protein nef” (Antimicrob Agents Chemother, 2010).
